In patent US6727254B2 (Schering Corporation, priority 2001, dated 2004):

Target: T1, ORL-1 receptor (Homo sapiens, UniProt P41146)
T1 construct: expressed in transfected cells; host or cells: CHO cells (membrane preparation)
Experiment: Nociceptin binding assay
Conditions: CHO cell membrane preparation expressing the ORL-1 receptor; [125I][Tyr14]nociceptin
Procedure: CHO cell membrane preparation expressing the ORL-1 receptor (2 mg) was incubated with varying concentrations of [^125I][Tyr ^14]nociceptin (3-500 pM) in a buffer containing 50 mM HEPES (pH7.4), 10 mM NaCl, 1 mM MgCl2, 2.5 mM CaCl2, 1 mg/ml bovine serum albumin and 0.025% bacitracin. In a number of studies, assays were carried out in buffer 50 mM tris-HCl (pH 7.4), 1 mg/ml bovine serum albumin and 0.025% bacitracin. Samples were incubated for 1 h at room temperature (22° C.). Radiolabelled ligand bound to the membrane was harvested over GF/B filters presoaked in 0.1% polyethyleneimine using a Brandell cell harvester and washed five times with 5 ml cold distilled water. Nonspecific binding was determined in parallel by similar assays performed in the presence of 1 μM nociceptin. All assay points were performed in duplicates of total and non-specific binding.
Calculations of Ki were made using methods well known in the art.

T1 sequence (P41146 whole entry): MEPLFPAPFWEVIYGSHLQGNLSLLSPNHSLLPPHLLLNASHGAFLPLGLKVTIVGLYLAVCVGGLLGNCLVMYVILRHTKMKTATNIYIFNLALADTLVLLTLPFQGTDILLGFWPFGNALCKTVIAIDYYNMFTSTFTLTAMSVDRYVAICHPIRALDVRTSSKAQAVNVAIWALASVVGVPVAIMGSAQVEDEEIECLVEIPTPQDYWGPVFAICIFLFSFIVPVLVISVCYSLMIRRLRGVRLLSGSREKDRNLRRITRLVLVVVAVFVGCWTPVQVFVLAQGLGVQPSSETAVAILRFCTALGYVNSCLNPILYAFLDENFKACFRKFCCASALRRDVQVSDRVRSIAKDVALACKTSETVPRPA

Row | Structure (SMILES) | Ki [nM]
1 | OC1(c2ccc(Br)cn2)CC2CCC(C1)N2C(c1ccccc1Cl)c1ccccc1Cl (centres unmarked) [Example 14, 8-[Bis(2-chlorophenyl)methyl]-3-(5-bromo-2-pyridinyl)-8-azabicyclo[3.2.1]octan-3-ol] | 1.3
2 | CCc1cnc(C2(O)CC3CCC(C2)N3C(c2ccccc2Cl)c2ccccc2Cl)nc1 (centres unmarked) [Example 2, 8-[Bis(2-chlorophenyl)methyl]-3-(5-ethyl-2-pyrimidinyl)-8-azabicyclo[3.2.1]octan-3-ol] | 7.6
3 | Cn1nccc1C1(O)CC2CCC(C1)N2C(c1ccccc1Cl)c1ccccc1Cl (centres unmarked) [Example 8, 8-[Bis(2-chlorophenyl)methyl]-3-(1-methyl-pyrazol-5-yl)-8-azabicyclo[3.2.1]octan-3-ol] | 6
4 | COC1(c2ncccn2)CC2CCC(C1)N2C(c1ccccc1Cl)c1ccccc1Cl (centres unmarked) [Example 6, 8-[Bis(2-chlorophenyl)methyl]-3-methoxy-3-(2-pyrimidinyl)-8-azabcyclo[3.2.1]octane] | 5.4
5 | OC1(c2cccnn2)CC2CCC(C1)N2C(c1ccccc1Cl)c1ccccc1Cl (centres unmarked) [Example 11, 8-[Bis(2-chlorophenyl)methyl]-3-(3-pyridazinyl)-8-azabicyclo[3.2.1]octan-3-ol] | 7
6 | OC1(c2ccccn2)CC2CCC(C1)N2C(c1ccccc1Cl)c1ccccc1Cl (centres unmarked) [Example 4, 8-[Bis(2-Chlorophenyl)methyl]-3-(2-pyridinyl)-8-azabicyclo[3.2.1]octan-3-ol] | 4
7 | OC1(c2nccc(N3CCNCC3)n2)CC2CCC(C1)N2C(c1ccccc1Cl)c1ccccc1Cl (centres unmarked) [Example 3, 8-[Bis(2-chlorophenyl)methyl]-3-[4-(1-piperazinyl)-2-pyrimidinyl]-8-azabicyclo[3.2.1]octan-3-ol] | 4
8 | OC1(c2cnccn2)CC2CCC(C1)N2C(c1ccccc1Cl)c1ccccc1Cl (centres unmarked) [Example 12, 8-[Bis(2-chlorophenyl)methyl]-3-(2-pyrazinyl)-8-azabicyclo[3.2.1]octan-3-ol] | 2
